Laboratory results taken from patent publication US7858635B2 (priority 2005, dated 2010).
Like-named read-outs stand apart in the source and are kept apart here.

What was measured:
[1] = biological target: T1, M1 muscarinic receptor (Homo sapiens, UniProt P11229); test: Functional mobilization of intracellular calcium (FLIPR, Fluo-3), M1-CHO cells; type: cell-based; conditions: for Emax: read-out: M1 Efficacy
T1 construct: expressed in transfected cells; host or cells: CHO cells (M1-CHO, under zeocin and G418 selection)
T1 sequence (P11229 1-460): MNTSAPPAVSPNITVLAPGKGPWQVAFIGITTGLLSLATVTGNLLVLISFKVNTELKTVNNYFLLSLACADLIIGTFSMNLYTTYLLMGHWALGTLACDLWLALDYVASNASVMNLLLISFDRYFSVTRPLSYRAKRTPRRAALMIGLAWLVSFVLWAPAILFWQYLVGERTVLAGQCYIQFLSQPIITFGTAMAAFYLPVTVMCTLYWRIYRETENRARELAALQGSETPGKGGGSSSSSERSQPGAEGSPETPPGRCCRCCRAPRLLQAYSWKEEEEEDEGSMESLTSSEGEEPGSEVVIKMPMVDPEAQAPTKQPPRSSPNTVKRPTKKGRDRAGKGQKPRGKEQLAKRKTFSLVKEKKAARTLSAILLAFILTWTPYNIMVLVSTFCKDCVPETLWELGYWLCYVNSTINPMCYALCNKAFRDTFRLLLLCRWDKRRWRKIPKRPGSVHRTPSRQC
Outline: (§1)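 CHO lines stably carrying the muscarinic subtype, dye-loaded with Fluo-3 at 37° C for 60-90 min, receive test compound in 0.5% DMSO. Agonist effects are read directly; antagonist effects against carbachol at EC80 after 15 min pre-incubation.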

[2] = biological target: T2, M4 muscarinic receptor (Homo sapiens, UniProt P08173); test: Functional mobilization of intracellular calcium (FLIPR, Fluo-3), M4-CHO cells; type: cell-based; conditions: for Emax: read-out: M4 Efficacy
T2 construct: expressed in transfected cells; host or cells: CHO cells (M4-CHO, under puromycin, zeocin and blasticidin selection)
T2 sequence (P08173 1-479): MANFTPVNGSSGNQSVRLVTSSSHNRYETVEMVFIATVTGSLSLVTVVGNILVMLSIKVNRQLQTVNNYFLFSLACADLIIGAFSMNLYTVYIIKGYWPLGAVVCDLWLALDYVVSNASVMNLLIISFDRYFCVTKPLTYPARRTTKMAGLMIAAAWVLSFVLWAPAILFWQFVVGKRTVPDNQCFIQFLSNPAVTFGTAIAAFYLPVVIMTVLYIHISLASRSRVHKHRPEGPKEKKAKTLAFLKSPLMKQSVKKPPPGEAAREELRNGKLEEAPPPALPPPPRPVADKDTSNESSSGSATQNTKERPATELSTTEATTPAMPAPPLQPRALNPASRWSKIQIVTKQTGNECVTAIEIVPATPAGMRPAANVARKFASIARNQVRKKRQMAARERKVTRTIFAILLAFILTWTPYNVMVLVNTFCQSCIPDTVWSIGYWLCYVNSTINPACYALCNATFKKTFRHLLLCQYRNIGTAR
Outline: as §1

[3] = compound nos. 1-454, 100% efficacy is the maximum response obtained with the Carbachol control
[4] = compound nos. 1-454, M1-CHO cells, calcium mobilization
[5] = compound nos. 1-454, M4-CHO cells, calcium mobilization
[6] = compound nos. 455-509, 100% efficacy is the maximum response obtained with the Carbachol control

SMILES	Emax [1, 3] [%]	M1 Activity [1, 4]	Emax [2, 3] [%]	M4 Activity [2, 5]	further results
CC(=O)N1CC2(CCN(C3CC4CCC(C4)C3)CC2)c2cc(F)ccc21 (stereo not drawn) [compound 35]	> 85	+++ (activity was measured to be less than or equal to 0.7 μM)	> 70	++ (activity was measured to be between 0.1 μM and 4.0 μM)	
CCOC(=O)N1C2CCC1CC(N1CCC3(CC1)CN(C(C)=O)c1c(F)cccc13)C2 (stereo not drawn) [compound 322]	< 65	++ (activity was measured to be between 0.7 μM and 3.0 μM)	> 70	+++ (activity was measured to be less than or equal to 0.1 μM)	
O=C(O[C@H]1CCOC1)N1C2CCC1CC(N1CCC3(CCc4ccccc43)CC1)C2 (stereo partly drawn) [compound 355]	65 to 85	++ (activity was measured to be between 0.7 μM and 3.0 μM)	55 to 70	++ (activity was measured to be between 0.1 μM and 4.0 μM)	
O=C1CC2(CCN(C3CCCCCC3)CC2)c2ccccc2N1 [compound 242]	65 to 85	+++ (activity was measured to be less than or equal to 0.7 μM)	> 70	++ (activity was measured to be between 0.1 μM and 4.0 μM)	
COC(=O)N1CCC(N2CCC3(CC2)CN(C(=O)N(C)C)c2ccc(F)cc23)CC1 [compound 154]	65 to 85	+++ (activity was measured to be less than or equal to 0.7 μM)	> 70	+++ (activity was measured to be less than or equal to 0.1 μM)	
CCc1nsc(N2CCC(N3CCC4(CCN(C(=O)N(C)C)c5ccccc54)CC3)CC2)n1 [compound 455]					Emax [1, 6]: > 100%; M1 Activity ([1]; compounds 455-509): +++ (activity was measured to be less than or equal to 2.0 μM); Emax [2, 6]: 25 to 100%; M4 Activity ([2]; compounds 455-509): ++ (activity was measured to be between 2.0 μM and 5.0 μM)
Cc1ccc2c(c1)C1(CCN(C3CC4CCC3C4)CC1)CN2C(=O)c1cc(C)n(C)n1 (stereo not drawn) [compound 211]	65 to 85	+ (activity was measured to be greater than or equal to 3.0 μM)	< 55	+ (activity was measured to be greater than or equal to 4.0 μM)	
CCc1nsc(N2CCC(N3CCC4(CC3)C[C@H](N(C)C(C)=O)c3ccccc34)CC2)n1 [compound 484]					Emax [1, 6]: > 100%; M1 Activity ([1]; compounds 455-509): +++ (activity was measured to be less than or equal to 2.0 μM); Emax [2, 6]: 25 to 100%; M4 Activity ([2]; compounds 455-509): ++ (activity was measured to be between 2.0 μM and 5.0 μM)
CCOC(=O)N1CCC(N2CCC3(CC2)CN(C(C)=O)c2ccc(C4=CCCC4)cc23)CC1 [compound 426]	< 65		< 55		M1 Activity ([1]; compound nos. 1-454): + (activity was measured to be greater than or equal to 3.0 μM); M4 Activity ([2]; compound nos. 1-454): + (activity was measured to be greater than or equal to 4.0 μM)
CCOC(=O)N1CCC(N2CCC3(CC2)CN(C(=O)N2CCOCC2)c2ccc(F)cc23)CC1 [compound 290]	< 65	+++ (activity was measured to be less than or equal to 0.7 μM)	< 55	+ (activity was measured to be greater than or equal to 4.0 μM)	
CCOC(=O)N1CCC(N2CCC3(CC2)CN(CCOC)c2ccc(F)cc23)CC1 [compound 391]	< 65		< 55		M1 Activity ([1]; compound nos. 1-454): ++ (activity was measured to be between 0.7 μM and 3.0 μM); M4 Activity ([2]; compound nos. 1-454): + (activity was measured to be greater than or equal to 4.0 μM)
CCOC(=O)N1CCC(N2CCC3(CC2)CN(C(C)=O)c2ccc(-c4ccccc4F)cc23)CC1 [compound 146]	> 85	+++ (activity was measured to be less than or equal to 0.7 μM)	> 70	+++ (activity was measured to be less than or equal to 0.1 μM)	
Cc1ccc2c(c1)C1(CCN([C@@H]3C[C@@H]4CC[C@@H]3C4)CC1)CN2 [compound 23]		++ (activity was measured to be between 0.7 μM and 3.0 μM)		+ (activity was measured to be greater than or equal to 4.0 μM)	M1 Efficacy [1, 3]: + (efficacy was calculated to be 65% or less); M4 Efficacy [2, 3]: + (efficacy was calculated to be 55% or less)
C/C=C\c1ccc2c(c1)C1(CCN(C3CCN(C(=O)OCC)CC3)CC1)CN2C(C)=O [compound 407]	< 65		< 55		M1 Activity ([1]; compound nos. 1-454): ++ (activity was measured to be between 0.7 μM and 3.0 μM); M4 Activity ([2]; compound nos. 1-454): + (activity was measured to be greater than or equal to 4.0 μM)
CCC(=O)CCN1CC2(CCN(C[C@@H]3C[C@H]4C=C[C@H]3C4)CC2)c2cc(F)ccc21 [compound 12]	< 65	+++ (activity was measured to be less than or equal to 0.7 μM)	< 55	++ (activity was measured to be between 0.1 μM and 4.0 μM)	
CCOC(=O)N1C2CCC1CC(N1CCC3(CC1)CN(C(=O)OC)c1ccc(F)cc13)C2 (stereo not drawn) [compound 167]	65 to 85	+++ (activity was measured to be less than or equal to 0.7 μM)	> 70	++ (activity was measured to be between 0.1 μM and 4.0 μM)	
COc1ccc(F)cc1N1CCC(N2CCC3(CC2)CN(C(=O)N(C)C)c2ccc(F)cc23)CC1 [compound 443]	65 to 85		55 to 70		M1 Activity ([1]; compound nos. 1-454): ++ (activity was measured to be between 0.7 μM and 3.0 μM); M4 Activity ([2]; compound nos. 1-454): ++ (activity was measured to be between 0.1 μM and 4.0 μM)
COC(=O)N1C2CCC1CC(N1CCC3(CC1)CN(S(C)(=O)=O)c1ccc(F)cc13)C2 (stereo not drawn) [compound 383]	65 to 85		< 55		M1 Activity ([1]; compound nos. 1-454): +++ (activity was measured to be less than or equal to 0.7 μM); M4 Activity ([2]; compound nos. 1-454): ++ (activity was measured to be between 0.1 μM and 4.0 μM)
Cc1ncc(N2CCC(N3CCC4(CC3)CN(C(=O)N(C)C)c3ccc(F)cc34)CC2)nc1C [compound 472]					Emax [1, 6]: > 100%; M1 Activity ([1]; compounds 455-509): +++ (activity was measured to be less than or equal to 2.0 μM); Emax [2, 6]: 25 to 100%; M4 Activity ([2]; compounds 455-509): ++ (activity was measured to be between 2.0 μM and 5.0 μM)
COCCOC(=O)N1CCCC(N2CCC3(CC2)CN(C(C)=O)c2ccc(F)cc23)CC1 (stereo not drawn) [compound 65]	65 to 85	++ (activity was measured to be between 0.7 μM and 3.0 μM)	< 55	+ (activity was measured to be greater than or equal to 4.0 μM)	
Clc1ccc2c(c1)C1(CCN(C3CCCCC3)CC1)CO2 [compound 5]	65 to 85	+++ (activity was measured to be less than or equal to 0.7 μM)	> 70	+++ (activity was measured to be less than or equal to 0.1 μM)	
